Measurements: US10471118B2, “Retinylamine derivitives for treatment of ocular disorders” (CASE WESTERN RESERVE UNIVERSITY, priority 2014, dated 2019)
“Also recorded” adds a separate entry of the source.

Key:
Abca4^−/−Rdh8^−/− mice = assay: Light-induced retinal degeneration in Abca4-/-Rdh8-/- mice (OCT, ERG, histology), Example 1; format: in vivo, mouse; conditions: 0.875 μmol per mouse oral gavage 16 h before 10,000 lux 1 h, OCT after 3 days in dark
Protocol: Abca4^−/−Rdh8^−/− double knockout mice were housed in the animal facility at the School of Medicine, Case Western Reserve University, where they were maintained under either complete darkness or a 12-h light (−10 1×) and 12-h dark cycle. All retinylamine tested were dissolved or suspended in 100 μl of vegetable oil with less than 10% (v/v) DMSO and were administered by oral gavage with a 22-gauge feeding needle. Experimental manipulations in the dark were done under dim red light transmitted through a Kodak No. 1 safelight filter (transmittance >560 nm). All animal procedures and experiments were approved by the Case Western Reserve University Animal Care Committees and conformed to recommendations of the American Veterinary Medical Association Panel on Euthanasia and the Association of Research for Vision and Ophthalmology.
After dark adaptation for 48 h, one or two Abca4^−/−Rdh8^−/− mice with pupils dilated by 1% tropicamide were exposed to fluorescent light (10,000 1×; 150-W spiral lamp, Commercial Electric) for 60 min in a white plastic bucket (Papersmith) with food and water and then kept in the dark. Histological and biochemical experiments were performed 3 days after exposure.
Ultra-high resolution spectral-domain OCT (SD-OCT; Bioptigen) and Heidelberg Retinal Angiograph II SLO (Heidelberg Engineering) were used for in vivo imaging of mouse retinas. Mice were anesthetized by intraperitoneal injection of a cocktail (20 μl g-1 body weight) containing ketamine (6 mg ml-1) and xylazine (0.44 mg ml-1) in 10 mM sodium phosphate, pH 7.2, and 100 mM NaCl. Pupils were dilated with 1% tropicamide. Four pictures acquired in the B-scan mode were used to construct each final averaged SD-OCT image.
All ERG procedures were performed by published methods. For single-flash recording, the duration of white-light flash stimuli (from 20 μs to 1 ms) was adjusted to provide a range of illumination intensities (from −3.7 to 1.6 log cd s m-2). Three to five recordings were made at sufficient intervals between flash stimuli (from 3 s to 1 min) to allow recovery from any photobleaching effects.
Mouse eyes were fixed for 24 h by rocking in a fixation solution (2 ml/eye) containing 4% paraformaldehyde and 1% glutaraldehyde in PBS. The tissue was processed through a series of ethanols, xylenes, and paraffins in a Tissue-Tek VIP automatic processor (Sakura, Torrance, Calif., USA), and 5-μm sections were cut using a Microm HM355 paraffin microtome (Thermo Fisher Scientific, Waltham, Mass., USA) and stained with hematoxylin and eosin (H&E) stain. Images of stained sections were captured by a Leica CTR6000 microscope attached to a CCD camera (Micropublisher 5.0 RTV, Qimaging Surray BC, Canada).
The effectiveness of the retinylamine derivatives on preventing light-induced retinal degeneration was tested in four-week old Abca4^−/−Rdh8^−/− mice according to the experimental scheme depicted in FIG. 1. After the mice were dark-adapted for 48 h, the drugs were gavaged at a dose 0.875 μmol/per mouse, which was selected based on the half protection dose for retinylamine after a dosing experiment, FIG. 2. Retinylamine was tested as a control at the same dose. […] Retinal integrity was assessed using optical coherence tomography (OCT). […] The mice without any treatment had photoreceptor cells completely destroyed after light illumination, and were used as a negative control. The retinal integrity was determined based on the thickness of outer nuclear layer (ONL) of the retinas measured from the OCT images. Reduced ONL thickness signifies the decreasing number of photoreceptors and retinal degeneration.

[1] = Biodistribution of N-retinylamides and retinylamine derivatives in liver and eye after oral gavage; format: in vivo, mouse; conditions: for original drug detected in the eye: 2 h and 16 h; for metabolism in the eye: conclusion from biodistribution at 2 h and 16 h
Protocol: Female C57BL mice (4-week-old) were randomly divided into seven groups, six treated groups and one control group. Free Ret-NH2 (3.5 μmol per mouse, dissolved in DMSO and dispersed in vegetable oil) or retinylamine derivatives (Ret-Gly, Ret-L-Val-Gly, Ret-L-Phe, Ret-L-Leu, Ret-L-Val, 3.5 μmol per mouse, dissolved in DMSO and dispersed in vegetable oil) was administered by gastric gavage, control group was only gavaged vegetable oil. Then at each predetermined time point (2 and 16 h after drug administration), 3 mice were sacrificed. The liver and eye balls were collected to determine tissue N-retinylamide content for pharmacokinetic analysis. A portion of the liver tissue (0.3-0.5 g) was weighed, homogenized in 2 mL 1:1 ethanol:PBS solution and the eye balls were similarly processed (eye balls were combined for 3 mice). N-Retinylamides were extracted in 4 mL hexane, concentrated, and reconstituted to a 300 μL volume for liver (200 μL for eye). Normal-phase HPLC (Agilent-Zorbax SIL; 5 μm; 4.5×250 mm; flow rate of 1.4 mL/min; 80:20 hexane:ethyl acetate (v:v); detection at 325 nm) was utilized to determine N-retinylamide concentration in these tissues.
Female C57BL mice (4-week-old) were randomly divided into seven groups, six treated groups and one control group. Free Ret-NH2 (3.5 μmol per mouse, dissolved in DMSO and dispersed in vegetable oil) or retinylamine derivative (Ret-Gly, Ret-L-Val-Gly, Ret-L-Phe, Ret-L-Leu, Ret-L-Val, 3.5 μmol per mouse, dissolved in DMSO and dispersed in vegetable oil) was administered by gastric gavage, control group was only gavaged vegetable oil. Then at each predetermined time point (2 and 16 h after drug administration), 3 mice were sacrificed. The liver and eye balls were collected to determine tissue drug content for pharmacokinetic analysis. A portion of the liver tissue (0.3-0.5 g) was weighed, homogenized in 2 mL 1:1 ethanol:PBS solution and the eye balls were similarly processed. Retinylamine or its derivative was extracted in 4 mL ethyl acetate, concentrated, and reconstituted to a 300 μL volume for liver (200 μL for eye). Reverse-phase HPLC (analytical C18 reverse column; 5 μm; 250 mm×4.6 mm; flow rate of 1.0 mL/min; 60:40 acetonitrile:H2O (v:v) with 0.05% trifluoroacetic acid; detection at 325 nm) was utilized to determine retinylamine or its derivative in these tissues. […]
No N-retinylamides were detected in the eye at 2 h for all treated mice. The concentration of N-retinylamides in the liver of all treated mice increased at 16 h post-treatment. […] The concentrations of the original drugs were also determined in the liver and eye at 2 h and 16 h (FIGS. 7C, D). All tested drugs, including Ret-NH2, were detected in liver and their concentrations decreased from 2 h to 16 h.

[2] = 3.5 μmol per mouse oral, C57BL mice, 16 h

Row | SMILES | protection against light-induced retinal degeneration (ONL thickness from OCT) (Abca4^−/−Rdh8^−/− mice) | original drug detected in the eye ([1]; 3.5 μmol per mouse oral) | further results
1 | CC1=C(/C=C/C(C)=C/C=C/C(C)=C/CNC(=O)[C@@H](N)CC(C)C)C(C)(C)CCC1 [RL, (S)-2-amino-N-((2E,4E,6E,8E)-3,7-dimethyl-9-(2,6,6-trimethylcyclohex-1-en-1-yl)nona-2,4,6,8-tetraen-1-yl)-4-methylpentanamide] | low protecting effect | only detected at 2 h | protection against light-induced retinal degeneration (ONL thickness from OCT) (Abca4^−/−Rdh8^−/− mice; listed as L-leucyl): little protecting efficacy; metabolism in the eye [1]: rapidly metabolized into inactive N-retinylamides in the eye
2 | CC[C@H](C)[C@H](N)C(=O)NC/C=C(C)/C=C/C=C(C)/C=C/C1=C(C)CCCC1(C)C [3c, (2S,3S)-2-amino-N-((2E,4E,6E,8E)-3,7-dimethyl-9-(2,6,6-trimethylcyclohex-1-en-1-yl)nona-2,4,6,8-tetraen-1-yl)-3-methylpentanamide] | little protecting efficacy |  | 
3 | CC1=C(/C=C/C(C)=C/C=C/C(C)=C/CNC(=O)[C@@H](N)C(C)C)C(C)(C)CCC1 [RV, (S)-2-amino-N-((2E,4E,6E,8E)-3,7-dimethyl-9-(2,6,6-trimethylcyclohex-1-en-1-yl)nona-2,4,6,8-tetraen-1-yl)-3-methylbutanamide] | relatively high protecting effect | detected in eyes at both 2 h and 16 h at a relatively high concentration | N-retinylamides in the eye [1, 2]: no detectable N-retinylamides in the eye; liver concentration of N-retinylamides [1, 2]: lower liver concentration of N-retinylamides than RF and RL; metabolism in the eye [1]: stable against metabolism and had prolonged presence in the eye as intact drug molecules
4 | CC1=C(/C=C/C(C)=C/C=C/C(C)=C/CNC(=O)[C@@H](C)N)C(C)(C)CCC1 [3f, (R)-2-amino-N-((2E,4E,6E,8E)-3,7-dimethyl-9-(2,6,6-trimethylcyclohex-1-en-1-yl)nona-2,4,6,8-tetraen-1-yl)propanamide] | little protecting efficacy |  | 
5 | CC1=C(/C=C/C(C)=C/C=C/C(C)=C/CNC(=O)CNC(=O)[C@@H](N)C(C)C)C(C)(C)CCC1 [RGV, (S)-2-amino-N-(2-(((2E,4E,6E,8E)-3,7-dimethyl-9-(2,6,6-trimethylcyclohex-1-en-1-yl)nona-2,4,6,8-tetraen-1-yl)amino)-2-oxoethyl)-3-methylbutanamide] | significant improvement on preventing light-induced retinopathy over retinyl amine |  | 
6 | CC1=C(/C=C/C(C)=C/C=C/C(C)=C/CNC(=O)[C@@H]2CCCN2)C(C)(C)CCC1 [3i, (S)—N-((2E,4E,6E,8E)-3,7-dimethyl-9-(2,6,6-trimethylcyclohex-1-en-1-yl)nona-2,4,6,8-tetraen-1-yl)pyrrolidine-2-carboxamide] | little protecting efficacy |  | 
7 | CC1=C(/C=C/C(C)=C/C=C/C(C)=C/CNC(=O)CN)C(C)(C)CCC1 [RG, 2-amino-N-((2E,4E,6E,8E)-3,7-dimethyl-9-(2,6,6-trimethylcyclohex-1-en-1-yl)nona-2,4,6,8-tetraen-1-yl)acetamide] | significant improvement on preventing light-induced retinopathy over retinyl amine; also recorded: relatively high protecting effect | detected in eyes at both 2 h and 16 h at a relatively high concentration | protection against light-induced retinal degeneration (ONL thickness from OCT) (Abca4^−/−Rdh8^−/− mice; listed as glycyl): significantly better protection than Ret-NH2 and other derivatives; liver concentration of N-retinylamides [1, 2]: lower liver concentration of N-retinylamides than RF and RL
8 | CC1=C(/C=C/C(C)=C/C=C/C(C)=C/CNC(=O)[C@H](N)C(C)C)C(C)(C)CCC1 [3g, (R)-2-amino-N-((2E,4E,6E,8E)-3,7-dimethyl-9-(2,6,6-trimethylcyclohex-1-en-1-yl)nona-2,4,6,8-tetraen-1-yl)-3-methylbutanamide] | little protecting efficacy |  | 
9 | CC1=C(/C=C/C(C)=C/C=C/C(C)=C/CNC(=O)CCN)C(C)(C)CCC1 [3h, 3-amino-N-((2E,4E,6E,8E)-3,7-dimethyl-9-(2,6,6-trimethylcyclohex-1-en-1-yl)nona-2,4,6,8-tetraen-1-yl)propanamide] | little protecting efficacy |  | 
10 | CC1=C(/C=C/C(C)=C/C=C/C(C)=C/CNC(=O)[C@H](C)N)C(C)(C)CCC1 [3a, (S)-2-amino-N-((2E,4E,6E,8E)-3,7-dimethyl-9-(2,6,6-trimethylcyclohex-1-en-1-yl)nona-2,4,6,8-tetraen-1-yl)propanamide] | little protecting efficacy |  | 
